ChEMBL document CHEMBL1201862, “PubChem BioAssay data set” (2004)
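Test compounds were applied to cells in 96-well plates for 48 hours at 5 doses. GI50: concentration for 50% inhibition of growth.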 Activity calls are given as the source filed them. No stated cut-off is given here; in the data, active = GI50 up to about 1.1 µM and inactive = higher.

Key:
Assay in all cases: NCI-60 cell line screen, 48 h
U-251 = test system: U-251
EKVX = test system: EKVX
CCRF-CEM = test system: CCRF-CEM
A549 = test system: A549
IGROV-1 = test system: IGROV-1
SNB-19 = test system: SNB-19
SN12C = test system: SN12C
HCT-15 = test system: HCT-15
TK-10 = test system: TK-10
NCI-H23 = test system: NCI-H23
OVCAR-5 = test system: OVCAR-5
MCF7 = test system: MCF7
SK-MEL-2 = test system: SK-MEL-2
HL-60 = test system: HL-60
MDA-N = test system: MDA-N
MDA-MB-435 = test system: MDA-MB-435
SW-620 = test system: SW-620
ACHN = test system: ACHN
T47D = test system: T47D
COLO 205 = test system: COLO 205
786-0 = test system: 786-0
NCI-H522 = test system: NCI-H522
PC-3 = test system: PC-3
A498 = test system: A498
Malme-3M = test system: Malme-3M
RPMI-8226 = test system: RPMI-8226
CAKI-1 = test system: CAKI-1
NCI/ADR-RES = test system: NCI/ADR-RES
HCC 2998 = test system: HCC 2998
HOP-92 = test system: HOP-92
K562 = test system: K562
M14 = test system: M14
UACC-257 = test system: UACC-257
DU-145 = test system: DU-145
OVCAR-8 = test system: OVCAR-8
SK-MEL-5 = test system: SK-MEL-5
HCT-116 = test system: HCT-116
Hs-578T = test system: Hs-578T
SR = test system: SR
SF-539 = test system: SF-539
SK-MEL-28 = test system: SK-MEL-28
UACC-62 = test system: UACC-62
HOP-62 = test system: HOP-62
SF-295 = test system: SF-295
HT-29 = test system: HT-29
SK-OV-3 = test system: SK-OV-3
KM12 = test system: KM12
LOX IMVI = test system: LOX IMVI
MDA-MB-231 = test system: MDA-MB-231
UO-31 = test system: UO-31
BT-549 = test system: BT-549
MOLT-4 = test system: MOLT-4
NCI-H460 = test system: NCI-H460
OVCAR-3 = test system: OVCAR-3
RXF 393 = test system: RXF 393
SF-268 = test system: SF-268
OVCAR-4 = test system: OVCAR-4
NCI-H226 = test system: NCI-H226
SNB-75 = test system: SNB-75

Measured: GI50

O=C(/C=C/c1ccc2c(c1)OCO2)Cc1nc2ccccc2[nH]c1=O
inactive: U-251 16.8 µM | EKVX 31.9 µM | CCRF-CEM 35.8 µM | A549 23.4 µM | IGROV-1 21 µM | SNB-19 24.2 µM | SN12C 24.1 µM | TK-10 18.5 µM | NCI-H23 29.8 µM | OVCAR-5 22.9 µM | MCF7 33.9 µM | SK-MEL-2 22 µM | HL-60 44.3 µM | MDA-N 26.6 µM | MDA-MB-435 20 µM | SW-620 30.4 µM | ACHN 13.6 µM | T47D 12 µM | COLO 205 52.6 µM | 786-0 16.7 µM | NCI-H522 > 100 µM | PC-3 23.2 µM | A498 20.3 µM | Malme-3M 18.3 µM | RPMI-8226 28.1 µM | CAKI-1 16.8 µM | NCI/ADR-RES 22.1 µM | HCC 2998 26.5 µM | HOP-92 20.7 µM | K562 5.3 µM | M14 11.7 µM | UACC-257 25.4 µM | DU-145 29.2 µM | OVCAR-8 28.5 µM | SK-MEL-5 32.6 µM | HCT-116 22.5 µM | Hs-578T 14.1 µM | SR 25.5 µM | SF-539 75 µM | SK-MEL-28 16.4 µM | UACC-62 6.76 µM | HOP-62 17.5 µM | SF-295 17.4 µM | HT-29 28.5 µM | SK-OV-3 18.6 µM | KM12 18.9 µM | LOX IMVI 3.52 µM | MDA-MB-231 20.2 µM | UO-31 22.9 µM | BT-549 43.7 µM | MOLT-4 38.9 µM | NCI-H460 22.6 µM | OVCAR-3 27.3 µM | RXF 393 17.9 µM | SF-268 18.4 µM
8.95 µM: HCT-15

N#CCCN(CCNc1ccccc1)C(=O)Nc1ccc(NC(=O)N(CCC#N)CCNc2ccccc2)cc1
> 60.3 µM: HCT-15
inactive: U-251 > 100 µM | EKVX > 100 µM | A549 > 100 µM | SNB-19 > 100 µM | SN12C > 100 µM | TK-10 > 61.4 µM | NCI-H23 > 68.4 µM | OVCAR-5 > 100 µM | MCF7 > 100 µM | SK-MEL-2 > 100 µM | MDA-N > 100 µM | MDA-MB-435 > 100 µM | SW-620 > 100 µM | ACHN > 100 µM | T47D > 58.1 µM | COLO 205 > 100 µM | 786-0 > 68.9 µM | NCI-H522 21.1 µM | PC-3 > 93.1 µM | A498 > 100 µM | Malme-3M > 100 µM | RPMI-8226 > 100 µM | CAKI-1 > 100 µM | OVCAR-4 24.7 µM | NCI/ADR-RES > 63.8 µM | NCI-H226 > 73.5 µM | HCC 2998 > 100 µM | HOP-92 > 45.9 µM | SNB-75 26.2 µM | K562 > 100 µM | M14 > 100 µM | UACC-257 > 100 µM | DU-145 > 92.9 µM | OVCAR-8 > 73.8 µM | SK-MEL-5 > 100 µM | HCT-116 > 100 µM | Hs-578T > 41.9 µM | SF-539 > 100 µM | SK-MEL-28 > 94.8 µM | UACC-62 > 100 µM | HOP-62 > 47 µM | SF-295 > 74.6 µM | HT-29 > 100 µM | SK-OV-3 > 65.6 µM | KM12 > 96.6 µM | LOX IMVI 51.1 µM | MDA-MB-231 > 100 µM | UO-31 > 100 µM | BT-549 > 38.5 µM | MOLT-4 > 100 µM | NCI-H460 > 67.6 µM | OVCAR-3 > 92.9 µM | RXF 393 > 45.3 µM | SF-268 > 47.4 µM
